How the values were obtained:
Assay in all cases: relative viability (nuclei count vs DMSO), 5 days (fraction); higher = more cells survive
[1] = tested on: HCC-15
Procedure, shortened: (§1)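 For relative viability, nuclei counts in treated wells were divided by those in vehicle wells. Lung cancer cell lines had been pin-tool dosed in 1536-well plates the day after seeding and cultured for 5 days, then fixed and stained in one step (final 0.05% Triton X-100, 1% formaldehyde, 1 ug/ml Hoechst) and imaged at 4×. Doses were one drug alone or a fixed anchor-drug dose plus five library-drug doses (not always all listed) in √10 steps, and values are duplicate-plate medians.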

[2] = tested on: LC-2-ad
Procedure, shortened: as §1

[3] = tested on: NCI-H2126
Procedure, shortened: as §1

[4] = tested on: NCI-H1975
Procedure, shortened: as §1

[5] = tested on: SK-LU-1
Procedure, shortened: as §1

[6] = tested on: NCI-H522
Procedure, shortened: as §1

[7] = tested on: NCI-H1915
Procedure, shortened: as §1

[8] = tested on: LXF-289
Procedure, shortened: as §1

[9] = tested on: HOP-62
Procedure, shortened: as §1

[10] = tested on: NCI-H1734
Procedure, shortened: as §1

[11] = tested on: NCI-H1755
Procedure, shortened: as §1

[12] = tested on: NCI-H2228
Procedure, shortened: as §1

[13] = tested on: RERF-LC-KJ
Procedure, shortened: as §1

[14] = tested on: NCI-H358
Procedure, shortened: as §1

[15] = tested on: A-427
Procedure, shortened: as §1

[16] = tested on: PC-3 [JPC-3]
Procedure, shortened: as §1

[17] = tested on: NCI-H2342
Procedure, shortened: as §1

[18] = tested on: HCC-78
Procedure, shortened: as §1

[19] = tested on: NCI-H1792
Procedure, shortened: as §1

[20] = tested on: NCI-H2347
Procedure, shortened: as §1

[21] = tested on: NCI-H647
Procedure, shortened: as §1

[22] = tested on: SW 1573
Procedure, shortened: as §1

What does the source list for `Nc1ccn([C@@H]2O[C@H](CO)[C@@H](O)[C@@H]2O)c(=O)n1` [Cytarabine] + N=C(N)NC(=N)NCCc1ccccc1 [Phenformin] (partner 250 µM)?
relative viability ([1]; first compound 0.005 µM): 0.454; relative viability ([1]; first compound 0.01581 µM): 0.436; relative viability ([1]; first compound 0.05 µM): 0.516; relative viability ([1]; first compound 0.1581 µM): 0.349; relative viability ([1]; first compound 0.5 µM): 0.31; relative viability ([2]; first compound 0.005 µM): 0.454; relative viability ([2]; first compound 0.01581 µM): 0.466; relative viability ([2]; first compound 0.05 µM): 0.49; relative viability ([2]; first compound 0.1581 µM): 0.344; relative viability ([2]; first compound 0.5 µM): 0.261; relative viability ([3]; first compound 0.005 µM): 0.472; relative viability ([3]; first compound 0.01581 µM): 0.464; relative viability ([3]; first compound 0.05 µM): 0.421; relative viability ([3]; first compound 0.1581 µM): 0.277; relative viability ([3]; first compound 0.5 µM): 0.271; relative viability ([4]; first compound 0.005 µM): 0.331; relative viability ([4]; first compound 0.01581 µM): 0.344; relative viability ([4]; first compound 0.05 µM): 0.31; relative viability ([4]; first compound 0.1581 µM): 0.193; relative viability ([4]; first compound 0.5 µM): 0.177; relative viability ([5]; first compound 0.005 µM): 0.353; relative viability ([5]; first compound 0.01581 µM): 0.413; relative viability ([5]; first compound 0.05 µM): 0.445; relative viability ([5]; first compound 0.1581 µM): 0.241; relative viability ([5]; first compound 0.5 µM): 0.2; relative viability ([6]; first compound 0.005 µM): 0.669; relative viability ([6]; first compound 0.01581 µM): 0.602; relative viability ([6]; first compound 0.05 µM): 0.554; relative viability ([6]; first compound 0.1581 µM): 0.489; relative viability ([6]; first compound 0.5 µM): 0.449; relative viability ([7]; first compound 0.005 µM): 0.324; relative viability ([7]; first compound 0.01581 µM): 0.328; relative viability ([7]; first compound 0.05 µM): 0.329; relative viability ([7]; first compound 0.1581 µM): 0.268; relative viability ([7]; first compound 0.5 µM): 0.245; relative viability ([8]; first compound 0.005 µM): 0.413; relative viability ([8]; first compound 0.01581 µM): 0.406; relative viability ([8]; first compound 0.05 µM): 0.341; relative viability ([8]; first compound 0.1581 µM): 0.129; relative viability ([8]; first compound 0.5 µM): 0.0821; relative viability ([9]; first compound 0.005 µM): 0.506; relative viability ([9]; first compound 0.01581 µM): 0.486; relative viability ([9]; first compound 0.05 µM): 0.399; relative viability ([9]; first compound 0.1581 µM): 0.156; relative viability ([9]; first compound 0.5 µM): 0.152; relative viability ([10]; first compound 0.005 µM): 0.322; relative viability ([10]; first compound 0.01581 µM): 0.219; relative viability ([10]; first compound 0.05 µM): 0.191; relative viability ([10]; first compound 0.1581 µM): 0.155; relative viability ([10]; first compound 0.5 µM): 0.155; relative viability ([11]; first compound 0.005 µM): 0.621; relative viability ([11]; first compound 0.01581 µM): 0.413; relative viability ([11]; first compound 0.05 µM): 0.466; relative viability ([11]; first compound 0.1581 µM): 0.274; relative viability ([11]; first compound 0.5 µM): 0.236; relative viability ([12]; first compound 0.005 µM): 0.25; relative viability ([12]; first compound 0.01581 µM): 0.197; relative viability ([12]; first compound 0.05 µM): 0.182; relative viability ([12]; first compound 0.1581 µM): 0.118; relative viability ([12]; first compound 0.5 µM): 0.112; relative viability ([13]; first compound 0.005 µM): 0.381; relative viability ([13]; first compound 0.01581 µM): 0.369; relative viability ([13]; first compound 0.05 µM): 0.308; relative viability ([13]; first compound 0.1581 µM): 0.298; relative viability ([13]; first compound 0.5 µM): 0.274; relative viability ([14]; first compound 0.005 µM): 0.235; relative viability ([14]; first compound 0.01581 µM): 0.2; relative viability ([14]; first compound 0.05 µM): 0.222; relative viability ([14]; first compound 0.1581 µM): 0.0765; relative viability ([14]; first compound 0.5 µM): 0.076; relative viability ([15]; first compound 0.005 µM): 0.255; relative viability ([15]; first compound 0.01581 µM): 0.188; relative viability ([15]; first compound 0.05 µM): 0.207; relative viability ([15]; first compound 0.5 µM): 0.153; relative viability ([16]; first compound 0.005 µM): 0.493; relative viability ([16]; first compound 0.01581 µM): 0.468; relative viability ([16]; first compound 0.05 µM): 0.418; relative viability ([16]; first compound 0.1581 µM): 0.346; relative viability ([16]; first compound 0.5 µM): 0.358; relative viability ([17]; first compound 0.005 µM): 0.543; relative viability ([17]; first compound 0.01581 µM): 0.57; relative viability ([17]; first compound 0.05 µM): 0.482; relative viability ([17]; first compound 0.1581 µM): 0.449; relative viability ([17]; first compound 0.5 µM): 0.404; relative viability ([18]; first compound 0.005 µM): 0.8; relative viability ([18]; first compound 0.01581 µM): 0.629; relative viability ([18]; first compound 0.05 µM): 0.466; relative viability ([18]; first compound 0.1581 µM): 0.363; relative viability ([18]; first compound 0.5 µM): 0.366; relative viability ([19]; first compound 0.01581 µM): 0.107; relative viability ([19]; first compound 0.05 µM): 0.16; relative viability ([19]; first compound 0.1581 µM): 0.196; relative viability ([19]; first compound 0.5 µM): 0.133; relative viability ([20]; first compound 0.005 µM): 0.381; relative viability ([20]; first compound 0.01581 µM): 0.383; relative viability ([20]; first compound 0.05 µM): 0.296; relative viability ([20]; first compound 0.1581 µM): 0.273; relative viability ([20]; first compound 0.5 µM): 0.291; relative viability ([21]; first compound 0.005 µM): 0.181; relative viability ([21]; first compound 0.01581 µM): 0.204; relative viability ([21]; first compound 0.05 µM): 0.193; relative viability ([21]; first compound 0.1581 µM): 0.0662; relative viability ([21]; first compound 0.5 µM): 0.0608; relative viability ([22]; first compound 0.005 µM): 0.342; relative viability ([22]; first compound 0.01581 µM): 0.287; relative viability ([22]; first compound 0.05 µM): 0.218; relative viability ([22]; first compound 0.1581 µM): 0.131; relative viability ([22]; first compound 0.5 µM): 0.109
